Source: the supplement of paper PMC4862054
Several values for one entry are separate records, joined by “and”; a condition that tells them apart may be missing. Equal values may be shown once.

Assays:
Conditions in all cases: incubation time: 72 h
HCC1937 [1] = test: drug sensitivity score (DSS), CellTiter-Blue viability (DSS (AUC-based score)); higher = stronger viability inhibition; extreme values may be limits of the assay
Method: (§1)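 DSRT with the CellTiter-Blue (resazurin reduction) viability readout, fluorescence 560/590 nm, 72 h incubation. Plates were normalised to DMSO and benzethonium chloride controls. DSS is computed from the area under the fitted dose-response curve (5 or 9 concentrations).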

MDA-MB-453 [2] = test: as above
Method: as §1

CAL-51 [3] = test: as above
Method: as §1

MDA-MB-468 [4] = test: as above
Method: as §1

DU-4475 = test: as above
Method: as §1

MDA-MB-231 = test: as above
Method: as §1

MFM-223 [5] = test: as above
Method: as §1

BT-549 [6] = test: as above
Method: as §1

HCC1143 [7] = test: as above
Method: as §1

CAL-85-1 [8] = test: as above
Method: as §1

CAL-148 [9] = test: as above
Method: as §1

SK-BR-3 = test: as above
Method: as §1

BT-474 = test: as above
Method: as §1

HDQ-P1 = test: as above
Method: as §1

HCC1937 [10] = test: normalised viability (% of control), CellTiter-Blue; higher = more viable cells (100 = DMSO, 0 = benzethonium chloride kill control)
Method: (§2)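 DSRT, CellTiter-Blue viability, 72 h incubation. Signal is normalised to DMSO and benzethonium chloride controls. Value is the normalised response at dose 1.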

MDA-MB-453 [11] = test: as above
Method: as §2

HCC1599 = test: as above
Method: as §2

CAL-51 [12] = test: as above
Method: as §2

MDA-MB-468 [13] = test: as above
Method: as §2

MFM-223 [14] = test: as above
Method: as §2

BT-549 [15] = test: as above
Method: as §2

CAL-120 = test: as above
Method: as §2

MDA-MB-436 = test: as above
Method: as §2

HCC1143 [16] = test: as above
Method: as §2

CAL-85-1 [17] = test: as above
Method: as §2

Hs578T = test: as above
Method: as §2

CAL-148 [18] = test: as above
Method: as §2

Structure (SMILES)	drug sensitivity score (HCC1937 [1])	drug sensitivity score (MDA-MB-453 [2])	drug sensitivity score (CAL-51 [3])	drug sensitivity score (MDA-MB-468 [4])	drug sensitivity score (DU-4475)	drug sensitivity score (MDA-MB-231)	drug sensitivity score (MFM-223 [5])	drug sensitivity score (BT-549 [6])	drug sensitivity score (HCC1143 [7])	drug sensitivity score (CAL-85-1 [8])	drug sensitivity score (CAL-148 [9])	drug sensitivity score (SK-BR-3)	drug sensitivity score (BT-474)	drug sensitivity score (HDQ-P1)	normalised viability (HCC1937 [10]; 1 nM)	normalised viability (MDA-MB-453 [11]; 1 nM)	normalised viability (HCC1599; 1 nM)	normalised viability (CAL-51 [12]; 1 nM)	normalised viability (MDA-MB-468 [13]; 1 nM)	normalised viability (MFM-223 [14]; 1 nM)	normalised viability (BT-549 [15]; 1 nM)	normalised viability (CAL-120; 1 nM)	normalised viability (MDA-MB-436; 1 nM)	normalised viability (HCC1143 [16]; 1 nM)	normalised viability (CAL-85-1 [17]; 1 nM)	normalised viability (Hs578T; 1 nM)	normalised viability (CAL-148 [18]; 1 nM)	normalised viability (HCC1937 [10]; 0.1 nM)	normalised viability (MDA-MB-453 [11]; 0.1 nM)	normalised viability (HCC1599; 0.1 nM) [%]	normalised viability (CAL-51 [12]; 0.1 nM)	normalised viability (MDA-MB-468 [13]; 0.1 nM)	normalised viability (MFM-223 [14]; 0.1 nM)	normalised viability (BT-549 [15]; 0.1 nM)	normalised viability (CAL-120; 0.1 nM)	normalised viability (MDA-MB-436; 0.1 nM)	normalised viability (HCC1143 [16]; 0.1 nM) [%]	normalised viability (CAL-85-1 [17]; 0.1 nM)	normalised viability (Hs578T; 0.1 nM)	normalised viability (CAL-148 [18]; 0.1 nM)
COc1ccc(-c2ccc3c(N4CCOC[C@@H]4C)nc(N4CCOC[C@@H]4C)nc3n2)cc1CO [AZD8055]	21.7	29	28.8	16.8	20.9	21.4	27.6	22.4	18.1	23.6	28	28.6	20	23.9	102%	89.3%	97.8%	94%	109%	93%	106%	93.2%	113%	98.2%	96.2%	105%	94.6%													
Cn1c(=O)n(-c2ccc(C(C)(C)C#N)cc2)c2c3cc(-c4cnc5ccccc5c4)ccc3ncc21 [NVP-BEZ235]	14.5	21.6	20.7	13.3	13.5	17	19.7	18.5	15.4	16.2	19.5	15.9	12	16.2														95.9%	96.8%	125	102%	108%	99.3%	112%	96.6%	119%	98.9	96.9%	105%	114%
CN1CCN(CCOc2cc(OC3CCOCC3)c3c(Nc4c(Cl)ccc5c4OCO5)ncnc3c2)CC1 [Saracatinib]	0	4.51	8.13	4.05	0	7.77	0	5	0	9.72	1.9	3.37	5.44	11.5	99.4%	105%	97.2%	106%	104%	105%	89.4%	82.4%	122%	80.9%	88.7%	107%	89.8%													
CN(C)C[C@@H]1CCn2cc(c3ccccc32)C2=C(C(=O)NC2=O)c2cn(c3ccccc23)CCO1 [Ruboxistaurin]	6.14	4.14	4.59	6.34	6.32	4.1	6.81	3.74	0	0	3.06	6.94	6.23	3.47	106%	98.5%	120%	98.9%	96.8%	104%	91.4%	120%	101%	127%	106%	94.8%	126%													
CO[C@H]1C[C@@H]2CC[C@@H](C)[C@@](O)(O2)C(=O)C(=O)N2CCCC[C@H]2C(=O)O[C@H]([C@H](C)C[C@@H]2CC[C@@H](OCCO)[C@H](OC)C2)CC(=O)[C@H](C)/C=C(\C)[C@@H](O)[C@@H](OC)C(=O)[C@H](C)C[C@H](C)/C=C/C=C/C=C/1C [Everolimus]		29.7 and 31.6	22.7 and 22.2	6.16 and 13.5	12.8 and 16.3		20 and 19.4	9.4 and 21.3		15 and 16.7	23 and 25.5	16.9 and 20.1	13.2 and 16															58% and 70.5%	93.7% and 90%	101	99.3% and 104%	105% and 87.7%	85% and 84%	81% and 93%	97.4% and 80.8%	104% and 86.3%		89.2% and 76.6%	58.9% and 73.8%	93.9% and 95.7%
Cc1ccc(NC(=O)c2ccc(CN3CCN(C)CC3)cc2)cc1Nc1nccc(-c2cccnc2)n1 [Imatinib]	0		0	0	0	0	0	0	0	0	0	0	0	0	81.9% and 101%	106% and 102%	109% and 104%	99.8% and 100%	102% and 105%	93.1% and 97.1%	104% and 116%	88.5% and 91%	90.1% and 106%	88.9% and 93%	87.5% and 85.1%	99.3% and 102%	86.2% and 97.6%													
